The record followed here is PubChem BioAssay (NCI).

Where “and” joins values, the source holds several entries; their conditions need not be identical. Identical values can stand only once.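 Briefly, cells in 96-well plates were exposed to five compound concentrations for 48 h, and endpoints were estimated by linear interpolation. At the GI50, growth is halved. The concentration for full growth arrest is given as TGI.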

Some test systems named below: SNB-19 CNS; SF-295 CNS; DU-145 prostate; HT29 colon; RPMI-8226 leukemia; MDA-MB-435; HL-60(TB) leukemia; MOLT-4 leukemia; OVCAR-8 ovarian; A498 renal; UO-31 renal.
Common to all, as to experiment: growth of human tumour cells (NCI), 48 h

Consider `C=CCC1(O)c2ccccc2C(=O)c2c(O)ccc(O)c21` (centres undefined), for which the TGI is 68.6 µM in the experiment on SNB-19 CNS; over 51.9 µM in the experiment with SF-295 CNS; 38 µM in the experiment on DU-145 prostate; over 62.4 µM in the experiment with HT29 colon; over 100 µM in the experiment with RPMI-8226 leukemia; 6.43 µM with MDA-MB-435. Also, the TGI in the experiment on HL-60(TB) leukemia is 13 µM; with MOLT-4 leukemia, over 58 µM; in the experiment with OVCAR-8 ovarian, 53.7 µM; with A498 renal, 25.8 µM; in the experiment on UO-31 renal it was 52.6 µM.
As to `CCc1nn(CN2CCN(C)CC2)c(=S)n1/N=C\c1ccc(-c2ccc([N+](=O)[O-])cc2)o1`, the TGI in the experiment on SNB-19 CNS, with SF-295 CNS, in the experiment with DU-145 prostate, in the experiment with HT29 colon, with RPMI-8226 leukemia and with MDA-MB-435 was over 100 µM throughout. The TGI in the experiment on HL-60(TB) leukemia is over 100 µM; with MOLT-4 leukemia, over 100 µM; in the experiment with OVCAR-8 ovarian, over 100 µM; in the experiment with A498 renal, 54.7 µM; in the experiment on UO-31 renal, over 100 µM.
As for `CN(C)c1nc2sc3c(c2c(=O)o1)CCCC3`, the TGI in the experiment on SNB-19 CNS, with SF-295 CNS, in the experiment with DU-145 prostate, in the experiment on HT29 colon, with RPMI-8226 leukemia and with MDA-MB-435 was over 100 µM each time. The TGI is over 100 µM in the experiment with HL-60(TB) leukemia; over 100 µM with MOLT-4 leukemia; over 100 µM with OVCAR-8 ovarian; 66.8 µM in the experiment with A498 renal; over 100 µM in the experiment with UO-31 renal.
Turning to `O=C(CSCC(=O)N/N=C/c1cc(I)cc(I)c1O)N/N=C/c1cc(I)cc(I)c1O`, the TGI is 36.6 µM in the experiment with SNB-19 CNS; 47.1 µM in the experiment with SF-295 CNS; over 100 µM in the experiment with DU-145 prostate; over 100 µM with HT29 colon; 61.5 µM with RPMI-8226 leukemia; 92.9 µM in the experiment with MDA-MB-435. For the same compound, the TGI in the experiment on HL-60(TB) leukemia was 43.5 µM; in the experiment on MOLT-4 leukemia, 29.2 µM; in the experiment on OVCAR-8 ovarian, 59.8 µM; with A498 renal it was 27.9 µM; in the experiment on UO-31 renal it was 44.5 µM.
`O=C1c2ccccc2C2CNC1(O)c1ccccc12` (centres undefined): the TGI in the experiment on SNB-19 CNS, in the experiment with SF-295 CNS, in the experiment with DU-145 prostate, in the experiment on HT29 colon, in the experiment with RPMI-8226 leukemia and with MDA-MB-435 was over 100 µM throughout. Moreover, the TGI in the experiment on HL-60(TB) leukemia, with MOLT-4 leukemia, in the experiment with OVCAR-8 ovarian, in the experiment on A498 renal and in the experiment on UO-31 renal was over 100 µM throughout.
Consider `c1ccc(CNC2CC(NCc3ccccn3)CC(NCc3ccccn3)C2)nc1` (centres undefined), for which the GI50 with SNB-19 CNS is 3.42 µM and 1.64 µM and 1.96 µM; with SF-295 CNS it was 5.03 µM; in the experiment on HT29 colon, 3.19 µM and 8.17 µM and 1.96 µM; in the experiment on RPMI-8226 leukemia, 2.96 µM and 6.93 µM and 3.51 µM; in the experiment on MDA-MB-435, 3.84 µM; in the experiment with HL-60(TB) leukemia, 2.78 µM and 1.23 µM. Moreover, the GI50 with OVCAR-8 ovarian is 2.88 µM and 7.94 µM and 3.62 µM; in the experiment with A498 renal, 2.06 µM. The TGI was 11.7 µM and 5.64 µM and 3.83 µM with SNB-19 CNS; 18.9 µM and 20.9 µM and 36.5 µM in the experiment on SF-295 CNS; 8.52 µM and 17.1 µM in the experiment with DU-145 prostate; 14.5 µM and 25 µM and 3.81 µM with HT29 colon; 9.64 µM and 25 µM and 13.5 µM in the experiment on RPMI-8226 leukemia; 9.45 µM and 8.78 µM and 15.5 µM in the experiment with MDA-MB-435. For the same compound, the TGI in the experiment on HL-60(TB) leukemia was 10.5 µM and 10.2 µM; in the experiment on MOLT-4 leukemia, 23.4 µM and 24.8 µM and 33.1 µM; in the experiment on OVCAR-8 ovarian it was 8.59 µM and 25 µM and 9.53 µM; in the experiment on A498 renal, 3.31 µM and 6.25 µM and 3.51 µM; in the experiment on UO-31 renal it was 70.8 µM and > 25 µM and > 100 µM.
